The results in this text go back to ChEMBL document CHEMBL1151013, “The chemical evolution of N,N-dimethyl-2-[5-(1,2,4-triazol-4-yl)-1H-indol-3-yl]ethylamine (L-741,604) and analogues: Potent and selective agonists for 5-HT1D receptors” (Bioorg Med Chem Lett, 1996).

Data set [1] is described as follows: Half-life in rat plasma was determined. In kind it is ADME, organism-based.
The species entered for another data set is Canis familiaris. In words: The plasma concentration producing half maximal fall in carotid flow in dogs. In kind it is functional, organism-based. The settings on record: Canis lupus familiaris.
The nature of data set [2]: Time required to reach maximum concentration in rat plasma. In kind it is ADME, organism-based.
Data set [3] is filed under the species Rattus norvegicus. Briefly: Inhibition of extravation produced in the dura meter by electrical stimulatio of trigeminal ganglion in rat. Type of data set: functional, organism-based.
Data set [4] in a line: Maximum concentration in rat plasma was determined. In kind it is ADME, organism-based.
Data set [5] in a line: Plasma clearance in rat was determined. In kind it is ADME, organism-based. The settings on record: read-out: Clp.
For data set [6], the species on record is Rattus norvegicus. Briefly: Maximum fall in carotid flow in rat. The settings on record: in vivo. In kind it is organism-based.
The next data set is filed under the species Oryctolagus cuniculus. In words: Compound was tested for agonist potency from plots of percentage 5-HT (1 uM) response against concentration of the agonist in white rabbit saphenous vein. Type of data set: functional, organism-based.

As a reminder, the half-life is the time needed for the level to fall by half in the phase considered. Read a high half-life as slow loss. For orientation: IC50 means the concentration at which inhibition is half-maximal. Low readings indicate inhibition by little substance, high ones a need for much substance. As a reminder, the Tmax is the time at which the peak concentration occurs. What is called Cmax is the highest concentration seen after dosing. As a reminder, the EC50 is the concentration that produces a half-maximal response. A low value points to greater potency. Compound `CN1CCC(c2c[nH]c3ccc(-n4cnnc4)cc23)CC1` had a half-life in data set [1] of 2 h. The IC50 in the data set filed under Canis familiaris is 6.9 nM; in the data set filed under Rattus norvegicus [3], 69 nM. Also, the Tmax in data set [2] amounted to 3 h. In data set [4], this compound returned a Cmax of 53 ng/mL. For the same compound, in data set [5], the clearance stood at 48 mL/min/kg. Also, the “Carotid Flow Decrease” value in the data set filed under Rattus norvegicus [6] worked out at 20%. The compound further gave an EC50 in the data set listed under Oryctolagus cuniculus of 39 nM.

`CNS(=O)(=O)Cc1ccc2[nH]cc(CCN(C)C)c2c1` had a half-life in data set [1] of 1.1 h. This compound came in with an IC50 in the data set filed under Canis familiaris of 48.6 nM. The Tmax in data set [2] is 4 h. For the same compound, in data set [4], the peak level (Cmax) was 74 ng/mL. In addition, the clearance in data set [5] was 69 mL/min/kg. Further, the “Carotid Flow Decrease” value in the data set filed under Rattus norvegicus [6] is listed as 44%.

Compound `CN(C)CCc1c[nH]c2ccc(-n3cnnc3)cc12` gave a half-life in data set [1] of 1.3 h. Moreover, the Tmax in data set [2] amounted to 1 h. Besides, inhibition in the data set listed under Rattus norvegicus [3] was half-maximal at 13 nM (IC50). The compound further yielded a Cmax in data set [4] of 83 ng/mL. Also, in data set [5], the clearance worked out at 37 mL/min/kg. In addition, the “Carotid Flow Decrease” value in the data set filed under Rattus norvegicus [6] is 27%. In addition, in the data set filed under Oryctolagus cuniculus, the EC50 turned out to be 32 nM.

In the data set filed under Oryctolagus cuniculus, `CN(C)CCc1c[nH]c2ccc(-n3cncn3)cc12` came in with an EC50 of 62 nM.

Consider `CN(C)CCc1c[nH]c2ccc(Cn3cncn3)cc12` [RIZATRIPTAN], for which the half-life in data set [1] was 0.8 h. Also, the Tmax in data set [2] was determined as 0.75 h. In data set [4], the Cmax amounted to 271 ng/mL. For the same compound, the clearance in data set [5] stood at 79 mL/min/kg. The “Carotid Flow Decrease” value in the data set filed under Rattus norvegicus [6] was determined as 76%.
